Assay results as given in paper PMC11965660, “Isobavachalcone ameliorates Alzheimer disease pathology by autophagy-mediated clearance of amyloid beta and inhibition of NLRP3 inflammasome in primary astrocytes and 5x-FAD mice” (Frontiers in Pharmacology, 2025).
pIC50: −log10 of the molar value. “Also recorded” adds a separate entry of the source. Where two headings read alike, the source gives them in different places.

Key:
Type in all cases: cell-based, C57BL/6J mice
primary astrocytes = assay: Cell viability assay (MTT and SRB); details: 24 h, up to 100 μM
Protocol: For cell viability assay, primary astrocytes were seeded in 96 well plate and IBC treatment at different concentration was given for 24 h. For MTT assay, cells were treated with 1.25, 2.5, 5, 10, 20, 40, 80 and 100 μM of IBC, while for the SRB assay, 0.625, 1.25, 2.5, 5, […], 20, 40, 80 and 100 μM IBC treatment was given. MTT dye at a concentration of 2.5 mg/ml was added 4 h before experiment termination. Formazan crystals thus formed were dissolved in DMSO and absorbance was measured at 570 nm.
For the SRB assay, the experiment was terminated by adding 50% chilled TCA into the wells for 1 h. Pellets were washed five times with distilled water and kept drying. Cells were then incubated with SRB dye for 30 min at RT, followed by washing with 1% acetic acid thrice. After drying, pellets were dissolved in 10 mM Tris-HCl (pH-10.5) and absorbance was measured at 540 nm.

LC3B and LAMP1 = LC3B and LAMP1 co-localization by confocal microscopy; details: primary astrocytes, 10 μM, 24 h
Protocol: (§1) Cells were seeded on coverslips in 6 well plates. After treatments, cells were fixed with 4% paraformaldehyde (PFA) for 15 min and permeabilized with 0.1% Triton-X 100 for 7 min. Blocking was done for 30 min with 2% BSA, followed by overnight incubation with primary antibody. Alexa fluor conjugated secondary antibody incubation was given to cells for 1 h for labeling. The nucleus was stained with 4,6-diamidino-2-phenylindole (DAPI) (1 μg/mL) for 10 min. Following staining, the coverslips were mounted on slides using mounting media (PBS and glycerol at a ratio of 1:9). Cells were washed thrice with PBS after each incubation. The images were acquired in a CQ1 high-throughput imaging system.

NLRP3 inflammasome [1] = assay: NLRP3 inflammasome activation in primary astrocytes, IL-1β and IL-18 release by ELISA; details: for pIC50: Mus musculus, Astrocyte, primary astrocytes, microglial conditional media, LPS 1 μg/ml 4 h, IBC 1 h, ATP 5 mM 30 min, ELISA
Protocol: (§2) Primary astrocytes were first treated with microglia conditional media to induce astrogliosis ([Liddelow et al., 2017]). For this, the microglia (N9) cell line, provided by Dr. Anirban Basu (National Brain Research Centre, Gurgaon, India) was cultured in RPMI-1640. N9 cells (Passage 28-35) were seeded in 24 well plate at density 0.05 × 10^6 per well. The cells were treated with 1 μg/ml LPS, and supernatant was collected after 24 h. Seeded astrocytes were then treated with the LPS stimulated N9 cells supernatant for 24 h. Thereafter, the treatment for NLRP3 inflammasome activation was given, including priming with fresh 1 μg/ml LPS for 4 h, followed by washing and IBC or MCC950 (100 nM) treatment for 1 h in incomplete media (media without fetal bovine serum). ATP at 5 mM concentration was used as secondary signal for 30 min.
The experiment was terminated by collecting the cell supernatant.
After the termination of experiments, the supernatant was collected and analyzed for levels of cytokines. For measuring IL-1β and IL-18, supernatant collected after NLRP3 inflammasome activation as mentioned above, was subjected to ELISA. For detection of IL-1β in mice cortex, mice cortices were isolated and homogenized in RIPA buffer to measure IL-1β in homogenates. The manufacturer’s protocol was followed for measuring the cytokines. The levels of measured cytokines were normalized with the total protein content of the cells. For total protein content of cell pellet lysed with lysis buffer (0.2 N NaCl and 1% Triton-X 100) was measured.
IC50 of Isobavachalcone for IL-1β and IL-18 was calculated by using GraphPad Prism 8 software using non-linear regression analysis model. Log (inhibitor) vs. response curve was plotted.

NLRP3 inflammasome [2] = assay: NLRP3 inflammasome activation in primary astrocytes: immunoblotting, ASC oligomers and specks, co-localization; details: for co-localization of CASP1 and NLRP3: 10 μM
Protocol: as §2
Following treatment with 5 and 10 μM IBC (1 h) and NLRP3 inflammasome activation in primary astrocytes, cells were lysed with ice-cold buffer (KCl [150 mM], HEPES-KOH [20 mM, pH 7.5], NP-40 [1%], sodium orthovanadate [1 mM], PMSF [0.1 mM] and protease inhibitor cocktail [1%]). Cells were centrifuged at 300 g for 10 min. The supernatant was collected for western blot analysis of total ASC protein. The pellet was washed with cold PBS and resuspended in 500 µL cold PBS. For the crosslinking of ASC, 2 mM of […] was added to the resuspended pellet and incubated at 37°C for 30 min in water bath. After centrifugation, the supernatant was discarded, and a 2X Laemmli buffer was added to the pellet. The samples were heated at 95°C for 5 min and subjected to western blotting for analyzing ASC oligomers.
Levels of cleaved IL-1β and caspase-1 were analyzed in cellular supernatant. The supernatant collected after the end of the experiment was incubated with StartaClean resin for 1 h at 4°C. Samples were kept on rotation so that the resin could bind properly with proteins. The concentrated resin pellet was obtained by centrifuging samples at 300 g for 10 min 2X Laemmli buffer was added to the resin pellet, heated at 95°C for 10 min, and subjected to western blotting.
Cellular lysates were prepared using radio immuno precipitation assay (RIPA) buffer for protein analysis. Briefly, the cell pellet was dissolved in RIPA buffer containing sodium fluoride, sodium orthovanadate, phenyl methyl sulfonyl fluoride (PMSF) and 1% protease inhibitor cocktail for 1 h with vertexing sample every 15 min. The supernatant was collected after high-speed centrifugation of samples for 20 min at 4°C. For analysis of proteins in mice hippocampi, the hippocampi isolated from mice brains was immediately washed with saline and stored in liquid nitrogen. For lysates preparation, tissue was homogenized in RIPA buffer substituted with sodium fluoride, sodium orthovanadate, phenyl methyl sulfonyl fluoride and 1% protease inhibitor cocktail. Total protein was measured using Bradford assay. Proteins were separated using SDS-PAGE and then transferred from gel to PVDF membrane. The protein of interest was labeled with a specific primary antibody overnight at 4°C. Further, the blot was incubated with corresponding HRP-conjugated secondary antibody for 1 h at room temperature. The band were visualized in the Genaxy Chemi Doc imaging system (Make: Syngene, Maryland, USA; Model: G: BOX, XT-4). Densitometry analysis of all the immunoblots was performed by using ImageJ software. Band density of proteins was normalized with β-actin. The phosphorylated proteins were normalized with their total forms.
as §1, with “Following staining, the coverslips were mounted on slides using mounting media (PBS and glycerol at a ratio of 1:9). Cells were washed thrice with PBS after each incubation. The images were acquired in a CQ1 high-throughput imaging system.” left out

[3] = LPS + ATP, 5 and 10 μM, western blot
[4] = in the presence of LPS and ATP, 5 and 10 μM

## CC(C)=CCc1c(O)ccc(C(=O)/C=C/c2ccc(O)cc2)c1O [IBC, isobavachalcone]
Primary astrocytes
  toxicity in primary astrocytes (MTT and SRB): no toxicity; also recorded: non-toxic
LC3B and LAMP1
  co-localization of LC3B and LAMP1: proximity of LC3B and LAMP1
NLRP3 inflammasome [1]; read-out: IC50 for IL-1β release
  pIC50: 5.53
NLRP3 inflammasome [1]; read-out: IC50 for IL-18 release
  pIC50: 5.56
NLRP3 inflammasome [1]; pre-treatment with 20 nM bafilomycin A1 for 1 h, ELISA and western blotting
  inhibitory effect on release of IL-1β when autophagy is inhibited: completely reversed
NLRP3 inflammasome [2]; 5 μM and 10 µM, vs cells induced with ATP
  ASC speck formation: highly significant (p < 0.0001) reduction
NLRP3 inflammasome [2]; in the presence of siAMPK
  co-localization of CASP1 and NLRP3: did not affect the co-localization
NLRP3 inflammasome [2]; vs LPS + ATP
  co-localization of CASP1 and NLRP3: reduced the co-localization
NLRP3 inflammasome [2]; LPS + ATP, 5 and 10 μM
  ASC monomer, dimer, and oligomer formation: inhibited
NLRP3 inflammasome [2]; [3]
  cleaved CASP1 in supernatant: reduced release
  cleaved IL-1β in supernatant: reduced release
NLRP3 inflammasome [2]; LPS + ATP, western blot
  NLRP3 protein expression: no change
NLRP3 inflammasome [2]; [4]
  AMPK phosphorylation (Thr 172): significantly enhanced phosphorylation
  LC3B-II level: marked increase
  SQSTM1 level: significant decline
NLRP3 inflammasome [2]; siAMPK, LPS + ATP
  inhibitory effect on IL-1b and CASP1 under AMPK knockdown: completely reversed
